The source made the active and inactive calls. The rule behind the calls is not given here.
Columns and labels:
[1] = species on record: Homo sapiens; experiment: Inhibitory effect on (HUVEC) human umbilical vein endothelial cell tube formation at a uM; not assayed; format: functional
[2] = species on record: Homo sapiens; experiment: Inhibitory effect on (HUVEC) human umbilical vein endothelial cell tube formation at a uM; ++ significant inhibition; format: functional
[3] = tested on: Mus musculus; experiment: Antitumor efficacy against A549 human non -small cell lung carcinoma was tested in nude mice xenografts at 50 mg/kg on 14th day (i.p.); format: functional; details: route intraperitoneal
[4] = tested on: Mus musculus; experiment: Antitumor efficacy against A549 human non -small cell lung carcinoma was tested in nude mice xenografts at 50 mg/kg on 25th day (i.p.); format: functional; details: route intraperitoneal
[5] = tested on: Mus musculus; experiment: Antitumor efficacy against A549 human non -small cell lung carcinoma was tested in nude mice xenografts at 50 mg/kg on 35th day (i.p.); format: functional; details: route intraperitoneal
[6] = tested on: Mus musculus; experiment: Antitumor efficacy against A549 human non -small cell lung carcinoma was tested in nude mice xenografts at 50 mg/kg on 45th day (i.p.); format: functional; details: route intraperitoneal
[7] = tested on: Mus musculus; experiment: Antitumor efficacy against A549 human non -small cell lung carcinoma was tested in nude mice xenografts at 50 mg/kg on 61th day (i.p.); format: functional; details: route intraperitoneal
[8] = species on record: Rattus norvegicus; experiment: Vasorelaxant potency was measured by inhibition of […]-contracted rat aorta; format: functional
[9] = species on record: Rattus norvegicus; experiment: In vitro cardioprotective effect was evaluated by measuring the contractile function (LVDRxHR) at a concentration of 10 uM; format: functional, Heart
[10] = species on record: Rattus norvegicus; experiment: In vitro cardioprotective effect was evaluated by measuring the contractile function LDH at a concentration of 10 uM;not assayed; format: functional; details: Heart
[11] = species on record: Rattus norvegicus; experiment: In vitro cardioprotective effect was evaluated by measuring the contractile function EDP at a concentration of 10 uM; format: functional, Heart
[12] = tested on: Rattus norvegicus; experiment: In vivo anti-infarction effect by measuring the ratio of myocardial infarct zone to area at risk (IZ/AAR) in ischemic myocardium damage rat model at 0.3 mg/Kg;not assayed; format: functional, organism-based
[13] = species on record: Rattus norvegicus; experiment: In vitro cardioprotective effect was evaluated by measuring the contractile function TTC at a concentration of 10 uM; format: functional, Heart
[14] = tested on: Mus musculus; experiment: Antitumor efficacy against A549 human non -small cell lung carcinoma was tested in nude mice xenografts at 50 mg/kg on 1st day (i.p.); format: functional; details: route intraperitoneal
[15] = species on record: Rattus norvegicus; experiment: In vitro cardioprotective effect was evaluated by measuring the contractile function LDH at a concentration of 10 uM; format: functional, Heart
[16] = tested on: Rattus norvegicus; experiment: In vivo anti-infarction effect by measuring the ratio of myocardial infarct zone to area at risk (IZ/AAR) in ischemic myocardium damage rat model at 0.3 mg/Kg; format: functional

Compound: COC(OC)[C@@]1(C)Oc2ccc(N)cc2[C@H](N(Cc2ncc[nH]2)c2ccc(OC(F)(F)F)cc2)[C@H]1O
- inhibition [1]: inactive

Compound: COC(OC)[C@]1(C)Oc2ccc([N+](=O)[O-])cc2[C@@H](N(Cc2ncc[nH]2)c2ccc(Cl)cc2)[C@@H]1O
- inhibition [2]: Significant inhibition

Compound: COC(OC)[C@]1(C)Oc2ccc(N)cc2[C@H](N(Cc2ncc[nH]2)c2ccc(Cl)cc2)[C@H]1O
- inhibition [1]: inactive

Compound: COC(OC)[C@]1(C)Oc2ccc([N+](=O)[O-])cc2[C@@H](N(Cc2ncc[nH]2)c2ccc(Br)cc2)[C@@H]1O
- inhibition [1]: inactive

Compound: COC(OC)[C@@]1(C)Oc2ccc(N)cc2[C@H](N(Cc2ncc[nH]2)c2ccc(Cl)cc2)[C@H]1O
- inhibition [2]: Significant inhibition

Compound: COc1ccc(N(Cc2ncc[nH]2)[C@H]2c3cc(N)ccc3O[C@](C)(C(OC)OC)[C@@H]2O)cc1
- inhibition [1]: inactive

Compound: COC(OC)[C@]1(C)Oc2ccc(N)cc2[C@@H](N(Cc2ncc[nH]2)c2ccc(Cl)cc2)[C@@H]1O
- Body weight [3]: 25.42 g
- inhibition in vivo at 50 mg/kg ([4]; A549, ip): 39.7%
- Body weight [4]: 26.17 g
- Tumor volume [4]: 92.2 mm**3
- inhibition in vivo at 50 mg/kg ([5]; A549, ip): 39.5%
- Body weight [5]: 27.1 g
- Tumor volume [5]: 186.8 mm**3
- inhibition in vivo at 50 mg/kg ([6]; A549, ip): 49.5%
- Tumor volume [6]: 244.3 mm**3
- inhibition in vivo at 50 mg/kg ([7]; A549, ip): 52.2%
- Tumor volume [7]: 494.8 mm**3
- IC50 [8]: > 30 µM
- LV DRxHR [9]: 19.3%
- LDH [10]: inactive
- EDP [11]: 62.3 mmHg
- IZ/AAR / AAR/LV [12]: inactive
- TTC [13]: 23.5 min
- Body weight [14]: 22.3 g

Compound: COC(OC)[C@@]1(C)Oc2ccc(N)cc2[C@@H](N(Cc2ncc[nH]2)c2ccc(Cl)cc2)[C@@H]1O
- inhibition [2]: Significant inhibition

Compound: COC(OC)[C@@]1(C)Oc2ccc([N+](=O)[O-])cc2[C@@H](N(Cc2ncc[nH]2)c2ccc(Cl)cc2)[C@@H]1O
- inhibition [2]: Significant inhibition
- IC50 [8]: > 30 µM
- LV DRxHR [9]: 55.7%
- LDH [15]: 10.7 U g-1
- EDP [11]: 14 mmHg
- IZ/AAR / AAR/LV [16]: 41%
- TTC [13]: 20.3 min

Compound: COC(OC)[C@]1(C)Oc2ccc([N+](=O)[O-])cc2[C@@H](N(Cc2ncc[nH]2)c2ccc(C(F)(F)F)cc2)[C@@H]1O
- inhibition [1]: inactive

Compound: COC(OC)[C@]1(C)Oc2ccc([N+](=O)[O-])cc2[C@@H](N(Cc2ncc[nH]2)c2ccc(OC(F)(F)F)cc2)[C@@H]1O
- inhibition [1]: inactive

Reference: ChEMBL document CHEMBL1144961, “Identification of a novel antiangiogenic agent; 4-(N-imidazol-2-ylmethyl)amino benzopyran analogues” (Bioorg Med Chem Lett, 2003)
